Experimental data reported in PubChem BioAssay AID330 (DTP/NCI, 2004).
“And” between values parts separate entries of the source, which are not always exact repeats. Identical values can stand only once. Toxic doses and inconclusive results are not listed. Rule for the calls: active = survival T/C of 150% or more; inactive = T/C below 125% in these data. Peptide text beside a SMILES is read from it.

Test system: P388 leukemia ip, CD2F1 mice, survival T/C
Assay: NCI In Vivo Anticancer Drug Screen. Data for tumor model P388 Leukemia (intraperitoneal) in CD2F1 (CDF1) mice
Settings: endpoint: median survival time, higher = longer survival
Method in brief: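 Mice carrying the transplanted tumor received test compound or vehicle. Survival was recorded in each group, and the value is the treated-group measurement divided by that of the vehicle-treated control group.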

[1] = dose: 50.0 mg/kg/injection, schedule: Q01DX009 (ip), vehicle: saline with Tween-80
[2] = dose: 100.0 mg/kg/injection, schedule: Q01DX009 (ip), vehicle: saline with Tween-80
[3] = dose: 200.0 mg/kg/injection, schedule: Q01DX009 (ip), vehicle: saline with Tween-80
[4] = dose: 50.0 mg/kg/injection, schedule: Q01DX005 (ip), vehicle: Klucel (hydroxypropylcellulose) (HPC)
[5] = dose: 100.0 mg/kg/injection, schedule: Q01DX005 (ip), vehicle: Klucel (hydroxypropylcellulose) (HPC)
[6] = dose: 200.0 mg/kg/injection, schedule: Q01DX005 (ip), vehicle: Klucel (hydroxypropylcellulose) (HPC)
[7] = dose: 100.0 mg/kg/injection, schedule: Q01DX001 (ip), vehicle: Klucel (hydroxypropylcellulose) (HPC)
[8] = dose: 200.0 mg/kg/injection, schedule: Q01DX001 (ip), vehicle: Klucel (hydroxypropylcellulose) (HPC)

Measured: T/C

CC(=O)NC(Cc1c[nH]c2ccccc12)C(C)=O (stereo not drawn)
inactive: dose: 25.0 mg/kg/injection, schedule: Q01DX009 (ip), vehicle: saline with Tween-80 89 % of control | [1] 91 % of control | [2] 106 % of control | [3] 97 % of control

C/C(=C\C(=O)c1ccccc1)Nc1ccccc1Cl
inactive: dose: 12.5 mg/kg/injection, schedule: Q01DX009 (ip), vehicle: saline 100 % of control | dose: 25.0 mg/kg/injection, schedule: Q01DX009 (ip), vehicle: saline 102 % of control | dose: 50.0 mg/kg/injection, schedule: Q01DX009 (ip), vehicle: saline 89 % of control

COc1ccc(C(=Nc2ccc(C)cc2)c2ccc([N+](=O)[O-])cc2)cc1
inactive: [2] 90 % of control | dose: 100.0 mg/kg/injection, schedule: Q04DX003 (ip), vehicle: saline with Tween-80 95 % of control | [3] 90 % of control | dose: 200.0 mg/kg/injection, schedule: Q04DX003 (ip), vehicle: saline with Tween-80 95 % of control | dose: 400.0 mg/kg/injection, schedule: Q01DX009 (ip), vehicle: saline with Tween-80 90 % of control | dose: 400.0 mg/kg/injection, schedule: Q04DX003 (ip), vehicle: saline with Tween-80 100 % of control

Cn1c(Cc2ccccc2)c(C(=O)/C=C/c2ccccc2)c(=O)n(C)c1=O
inactive: dose: 50.0 mg/kg/injection, schedule: Q01DX005 (ip), vehicle: saline with Tween-80 103 % of control | dose: 100.0 mg/kg/injection, schedule: Q01DX005 (ip), vehicle: saline with Tween-80 100 % of control | dose: 200.0 mg/kg/injection, schedule: Q01DX005 (ip), vehicle: saline with Tween-80 99 % of control

CCCCOC(=O)C(C)OC(=O)Nc1cccc(C)c1 (stereo not drawn)
inactive: dose: 100.0 mg/kg/injection, schedule: Q04DX002 (ip), vehicle: Klucel (hydroxypropylcellulose) (HPC) 105 % of control | dose: 200.0 mg/kg/injection, schedule: Q04DX002 (ip), vehicle: Klucel (hydroxypropylcellulose) (HPC) 103 % of control | dose: 400.0 mg/kg/injection, schedule: Q04DX002 (ip), vehicle: Klucel (hydroxypropylcellulose) (HPC) 100 % of control

CC(C)(C)OC(=O)CS(=O)Nc1ccccc1O (stereo not drawn)
inactive: dose: 60.0 mg/kg/injection, schedule: Q01DX005 (ip), vehicle: Klucel (hydroxypropylcellulose) (HPC) 105 % of control | dose: 120.0 mg/kg/injection, schedule: Q01DX005 (ip), vehicle: Klucel (hydroxypropylcellulose) (HPC) 108 % of control | dose: 240.0 mg/kg/injection, schedule: Q01DX005 (ip), vehicle: Klucel (hydroxypropylcellulose) (HPC) 97 % of control

Cc1ccc(C)c(NC(=O)Nc2ccc(C(=O)O)cc2)c1
inactive: dose: 50.0 mg/kg/injection, schedule: Q01DX009 (ip), vehicle: Klucel (hydroxypropylcellulose) (HPC) 105 % of control | dose: 100.0 mg/kg/injection, schedule: Q01DX009 (ip), vehicle: Klucel (hydroxypropylcellulose) (HPC) 105 % of control | dose: 200.0 mg/kg/injection, schedule: Q01DX009 (ip), vehicle: Klucel (hydroxypropylcellulose) (HPC) 102 % of control

Cc1nc2c(cnn2C)c(=O)[nH]1
inactive: [4] 96 % of control | [5] 98 % of control | [6] 97 % of control

CCOC(=O)c1n[nH]c(=S)[nH]c1=O
inactive: [4] 104 % of control | [5] 108 % of control | [6] 101 % of control

OC1CC2c3ccccc3C1c1cccc[n+]12 (stereo not drawn)
inactive: dose: 12.5 mg/kg/injection, schedule: Q01DX005 (ip), vehicle: saline 106 % of control | dose: 25.0 mg/kg/injection, schedule: Q01DX005 (ip), vehicle: saline 108 % of control | dose: 50.0 mg/kg/injection, schedule: Q01DX005 (ip), vehicle: saline 103 % of control and 106 % of control

CC(C)CC(NC(=O)C(N)CC(=O)O)C(=O)O (stereo not drawn) (H-Asp-Leu-OH; configuration not given here)
inactive: [4] 100 % of control | [5] 98 % of control | [6] 99 % of control

Cc1ccc(N=c2scc(-c3ccccc3)n2-c2ccccc2)cc1
inactive: dose: 100.0 mg/kg/injection, schedule: Q04DX002 (ip), vehicle: saline with Tween-80 102 % of control | dose: 200.0 mg/kg/injection, schedule: Q04DX002 (ip), vehicle: saline with Tween-80 93 % of control | dose: 400.0 mg/kg/injection, schedule: Q04DX002 (ip), vehicle: saline with Tween-80 95 % of control

C/C(=N\O)c1ccccc1N=Nc1ccc(N(CCCl)CCCl)cc1C
inactive: dose: 50.0 mg/kg/injection, schedule: Q01DX001 (ip), vehicle: Klucel (hydroxypropylcellulose) (HPC) 100 % of control | [7] 98 % of control | [8] 104 % of control

c1ccc(C[n+]2ccc3ccccc3c2)cc1
inactive: dose: 6.25 mg/kg/injection, schedule: Q04DX003 (ip), vehicle: saline with Tween-80 101 % of control | dose: 12.5 mg/kg/injection, schedule: Q04DX003 (ip), vehicle: saline with Tween-80 100 % of control | dose: 25.0 mg/kg/injection, schedule: Q04DX003 (ip), vehicle: saline with Tween-80 101 % of control

O=C1C(O)C(c2ccccc2)c2ccccc2N1c1ccccc1 (stereo not drawn)
inactive: [7] 95 % of control | [8] 96 % of control | dose: 400.0 mg/kg/injection, schedule: Q01DX001 (ip), vehicle: Klucel (hydroxypropylcellulose) (HPC) 89 % of control

c1cc2c3c(c1)CCC3CCC2 (stereo not drawn)
inactive: [1] 112 % of control | [2] 109 % of control and 117 % of control | [3] 118 % of control

C=CN=NNc1ccc(OC)cc1
inactive: dose: 100.0 mg/kg/injection, schedule: Q04DX003 (ip), vehicle: saline + Tween-80 + alcohol 116 % of control | dose: 200.0 mg/kg/injection, schedule: Q04DX003 (ip), vehicle: saline + Tween-80 + alcohol 106 % of control

CN(C)CCSc1cc(O)c2c(c1O)C(=O)c1ccccc1C2=O
inactive: dose: 12.5 mg/kg/injection, schedule: Q04DX003 (ip), vehicle: water 107 % of control | dose: 25.0 mg/kg/injection, schedule: Q01DX009 (ip), vehicle: water 102 % of control | dose: 25.0 mg/kg/injection, schedule: Q04DX003 (ip), vehicle: water 98 % of control | dose: 50.0 mg/kg/injection, schedule: Q01DX009 (ip), vehicle: water 103 % of control | dose: 50.0 mg/kg/injection, schedule: Q04DX003 (ip), vehicle: water 102 % of control | dose: 100.0 mg/kg/injection, schedule: Q01DX009 (ip), vehicle: water 102 % of control | dose: 100.0 mg/kg/injection, schedule: Q04DX003 (ip), vehicle: water 102 % of control | dose: 200.0 mg/kg/injection, schedule: Q01DX009 (ip), vehicle: water 97 % of control | dose: 200.0 mg/kg/injection, schedule: Q04DX003 (ip), vehicle: water 118 % of control

CCOC1=C(CC)C(=O)c2ccccc2C1=O
inactive: [4] 100 % of control | [5] 100 % of control | [6] 107 % of control

CCC1(O)CC(OC2CC(N(C)C)C(OC3CC(O)C(O)C(C)O3)C(C)O2)c2c(cc3c(c2O)C(=O)c2c(O)ccc(O)c2C3=O)C1C(=O)OC (stereo not drawn)
inactive: dose: 3.13 mg/kg/injection, schedule: Q04DX003 (ip), vehicle: Klucel (hydroxypropylcellulose) (HPC) 100 % of control | dose: 6.25 mg/kg/injection, schedule: Q04DX003 (ip), vehicle: Klucel (hydroxypropylcellulose) (HPC) 110 % of control | dose: 50.0 mg/kg/injection, schedule: Q04DX003 (ip), vehicle: Klucel (hydroxypropylcellulose) (HPC) 120 % of control

Cc1cccc2c1C(=O)N(CC[P+](c1ccccc1)(c1ccccc1)c1ccccc1)C2=O
inactive: dose: 0.78 mg/kg/injection, schedule: Q01DX009 (ip), vehicle: water 111 % of control | dose: 1.33 mg/kg/injection, schedule: Q01DX009 (ip), vehicle: water 115 % of control | dose: 2.0 mg/kg/injection, schedule: Q01DX009 (ip), vehicle: water 119 % of control | dose: 3.0 mg/kg/injection, schedule: Q01DX009 (ip), vehicle: water 121 % of control

CN(C)C(=S)c1ccccc1NS(=O)(=O)c1ccccc1
inactive: dose: 100.0 mg/kg/injection, schedule: Q04DX003 (ip), vehicle: saline 106 % of control | dose: 200.0 mg/kg/injection, schedule: Q04DX003 (ip), vehicle: saline 100 % of control | dose: 400.0 mg/kg/injection, schedule: Q04DX003 (ip), vehicle: saline 97 % of control

O=C1CN(CO)C(=O)N1CO
inactive: dose: 25.0 mg/kg/injection, schedule: Q01DX005 (ip), vehicle: Klucel (hydroxypropylcellulose) (HPC) 114 % of control | [4] 116 % of control and 117 % of control | [5] 116 % of control

CC[N+](C)(CC)CCOC(C)=O
inactive: dose: 6.25 mg/kg/injection, schedule: Q01DX001 (ip), vehicle: saline 100 % of control | dose: 12.5 mg/kg/injection, schedule: Q01DX001 (ip), vehicle: saline 100 % of control | dose: 25.0 mg/kg/injection, schedule: Q01DX001 (ip), vehicle: saline with Tween-80 101 % of control | dose: 25.0 mg/kg/injection, schedule: Q01DX001 (ip), vehicle: saline 98 % of control
